This note sets out measurements from patent US11718619B2, “Isoxazolyl-carbonyloxy azabicyclo[3.2.1]octanyl compounds as FXR activators” (ARDELYX, INC., priority 2016, dated 2023).

Assay [1] concerns the target ligand binding domain of human FXR (Homo sapiens (Human), UniProt Q96RI1). The experiment in a line: FXR ligand binding assay (LanthaScreen FRET). As to conditions: for Emax: read-out: % Efficacy; for % Efficacy: extent of activation relative to GW4064. In general terms: TR-FRET usually uses a lanthanide donor and a delayed reading to cut background.
Experimental: The affinity of FXR ligands for the ligand binding domain of FXR was determined using a commercially available human FXR ligand binding assay (LanthaScreen, Thermofisher Cat #PV4833). […] Binding of FXR ligands to the FXR ligand binding domain promotes binding of the fluorescein-labelled SRC2-2 peptide. This causes a FRET signal between the terbium-labelled anti-GST antibody and the fluorescein-labelled SRC peptide which are both bound to the FXR ligand binding domain.
Test compounds are dissolved in DMSO and a 3-fold serial dilution series is generated, then further diluted into assay buffer. The compounds are mixed with 5 nM GST-tagged FXR ligand binding domain, 5 nM Tb-labelled anti-GST antibody and 500 nM fluorescein-labelled SRC2-2 peptide in a pH 7.4 buffer. The reaction is incubated at room temperature for 1 hour, then the FRET signal is measured as the ratio of the 520 nm/495 nm emission following excitation at 340 nm. The change in FRET signal is plotted against the test article concentration and fit to a 3-parameter logistical equation.
For assay [2], the target named is human Famesoid X receptor ligand-binding domain/Gal4 DNA binding domain chimera (Homo sapiens (Human), UniProt Q96RI1). The experiment in a line: Cellular FXR beta-lactamase reporter assay (FXR-UAS-bla HEK 293T). The format is cell-based. As to conditions: for Emax: HEK-293T, read-out: % Efficacy; for EC50: read-out: FXR pEC50 (converted); for % Efficacy: extent of activation relative to GW4064. On the procedure: FXR activation was measured using a cell line and procedure obtained from Life Technologies (Cat #K1691). FXR-UAS-&/a HEK 293T cells contain a human Famesoid X receptor ligand-binding domain/Gal4 DNA binding domain chimera stably integrated into the CellSensor® UAS-bla HEK293T cell line. The CellSensor® UAS-bla HEK293T contains a beta-lactamase reporter gene under control of a UAS response element stably integrated into HEK 293T cells. Activation of FXR by bound ligands results in transcriptional activation of the beta-lactamase reporter gene, which is detected via assay of beta-lactamase activity.
Cells are harvested and diluted into assay medium containing phenol red-free DMEM supplemented with 2% Charcoal-stripped FBS, pyruvate, non-essential amino acids. Cells are then transferred to a 384 well assay plate. Test compounds are dissolved in DMSO and a 3-fold serial dilution series is generated, then further diluted into assay medium. Compounds in assay medium are added to cells in the 384 well plate and allowed to incubate 16 h at 37 C in the presence of 5% CO2.
A FRET-based […] (CCF4) is loaded into cells as its acetomethoxy ester. Intracellular esterases liberate free CCF4, a cephalosporin core linking 7-hydroxycoumarin to fluorescein. In the presence of beta-lactamase activity produced in the presence of FXR agonists, cleavage of CCF4 spatially separates the two dyes and disrupts FRET, so that exciting the coumarin at 409 nm now produces a blue fluorescence signal at 447 nm. The change in FRET signal is plotted against the test compound concentration and fit to a 3-parameter logistical equation.
On the technique in general: In a reporter assay the amount or activity of a reporter protein is the signal.

Assay [3] relates to fibroblast growth factor 19 (FGF19) secretion in human ileum. The experiment in a line: Human Ileum APECCS (FGF19). The format is cell-based. As to conditions: relative to GW4064.
Assay [4] concerns C57BL/6 male mice fed a Western diet. The assay can be described thus: Western diet study. In kind it is in vivo, C57BL/6 mice. How it is done:
Six-week-old C57BL/6 male mice were fed a Western diet (WD) (62% fat/0.2% cholesterol). […] An additional control group (lean) was fed a standard rodent chow throughout the study. Body weight measurements and serum samples (tail bleed) were taken weekly. After 6 weeks of treatment, all animals were sacrificed and hepatosteatosis-related endpoints and other liver markers were measured.
Total RNA from mouse tissues was isolated and used for library preparation. Library samples were multiplexed ahead of mRNA sequencing.

human Famesoid X receptor ligand-binding domain/Gal4 DNA binding domain chimera, sequence (Q96RI1 262-486, stated change not applied): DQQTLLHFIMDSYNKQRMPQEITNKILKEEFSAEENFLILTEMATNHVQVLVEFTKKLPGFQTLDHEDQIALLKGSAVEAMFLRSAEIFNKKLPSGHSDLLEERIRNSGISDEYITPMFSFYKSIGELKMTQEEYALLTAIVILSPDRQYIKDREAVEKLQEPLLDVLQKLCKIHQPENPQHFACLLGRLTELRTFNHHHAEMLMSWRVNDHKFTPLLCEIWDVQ
ligand binding domain of human FXR, sequence (Q96RI1 262-486): as the sequence (Q96RI1 262-486, stated change not applied) above

As to `O=C(O)c1cc(F)c2nc(N3[C@@H]4CC[C@H]3C[C@@H](OC(=O)c3c(-c5c(F)cccc5F)noc3C3CC3)C4)sc2c1` [Compound I-16, 2-[(1R,3R,5S)-3-[5-cyclopropyl-3-(2,6-difluorophenyl)-1,2-oxazole-4-carbonyloxy]-8-azabicyclo[3.2.1]octan-8-yl]-4-fluoro-1,3-benzothiazole-6-carboxylic acid], the Emax in assay [1] is 47%. Also, in assay [2], the Emax is 110% and the EC50 is 200 nM.

Regarding `O=C(O)c1cc(F)c2nc(N3[C@@H]4CC[C@H]3C[C@@H](OC(=O)c3c(C5CCC6(CC5)CC6)noc3C3CC3)C4)sc2c1` [Compound I-19, 2-[(1R,3R,5S)-3-(5-cyclopropyl-3-{spiro[2.5]octan-6-yl}-1,2-oxazole-4-carbonyloxy)-8-azabicyclo[3.2.1]octan-8-yl]-4-fluoro-1,3-benzothiazole-6-carboxylic acid], the Emax in assay [1] came out at 55%. In assay [2], the Emax worked out at 79% and the EC50 was 158 nM.

On to `Cc1onc(-c2c(Cl)cccc2Cl)c1C(=O)O[C@H]1C[C@H]2CC[C@@H](C1)N2c1nc2c(F)cc(C(=O)O)cc2s1` [Compound I-23, 2-[(1R,3S,5S)-3-[3-(2,6-dichlorophenyl)-5-methyl-1,2-oxazole-4-carbonyloxy]-8-azabicyclo[3.2.1]octan-8-yl]-4-fluoro-1,3-benzothiazole-6-carboxylic acid], for which the Emax in assay [1] came to 37%. Moreover, in assay [2], the Emax came out at 100% and the EC50 was 158 nM.

As for `O=C(O)c1cc(F)c2nc(N3[C@@H]4CC[C@H]3C[C@@H](OC(=O)c3c(-c5c(Cl)cccc5Cl)noc3C3CCC3)C4)sc2c1` [Compound I-24, 2-[(1R,3R,5S)-3-[5-cyclobutyl-3-(2,6-dichlorophenyl)-1,2-oxazole-4-carbonyloxy]-8-azabicyclo[3.2.1]octan-8-yl]-4-fluoro-1,3-benzothiazole-6-carboxylic acid], the Emax in assay [1] stood at 64%. Also, in assay [2], the Emax worked out at 98% and the EC50 is 31.6 nM.

`O=C(O)c1cc(F)c2nc(N3[C@@H]4CC[C@H]3C[C@@H](OC(=O)c3c(-c5c(Cl)cccc5Cl)noc3C3(F)CC3)C4)sc2c1` [Compound I-27, 2-[(1R,3R,5S)-3-[3-(2,6-dichlorophenyl)-5-(1-fluorocyclopropyl)-1,2-oxazole-4-carbonyloxy]-8-azabicyclo[3.2.1]octan-8-yl]-4-fluoro-1,3-benzothiazole-6-carboxylic acid]: the Emax in assay [1] was determined as 107%. Also, in assay [2], the Emax was 108% and the EC50 is 3.98 nM.

Regarding `O=C(Cc1c(-c2c(Cl)cccc2Cl)noc1C1CC1)O[C@H]1C[C@H]2CC[C@@H](C1)N2c1nc2c(F)cc(C(=O)O)cc2s1` [Compound I-32, 2-[(1R,3R,5S)-3-({2-[5-cyclopropyl-3-(2,6-dichlorophenyl)-1,2-oxazol-4-yl]acetyl}oxy)-8-azabicyclo[3.2.1]octan-8-yl]-4-fluoro-1,3-benzothiazole-6-carboxylic acid], the Emax in assay [1] was 34%. In assay [2], the Emax turned out to be 86% and the EC50 is 398 nM.

Take `CCCS(=O)(=O)NC(=O)c1ccc(N2[C@@H]3CC[C@H]2C[C@@H](OC(=O)c2c(-c4c(Cl)cccc4Cl)noc2C2CC2)C3)cc1` [Compound I-45, (1R,3R,5S)-8-{4-[(propane-1-sulfonyl)carbamoyl]phenyl}-8-azabicyclo[3.2.1]octan-3-yl 5-cyclopropyl-3-(2,6-dichlorophenyl)-1,2-oxazole-4-carboxylate]: the “% Efficacy” value is given as 130% in assay [1] and 128% in assay [2].

As for `CCCCCS(=O)(=O)NC(=O)c1ccc(N2[C@@H]3CC[C@H]2C[C@@H](OC(=O)c2c(-c4c(Cl)cccc4Cl)noc2C2CC2)C3)cc1` [Compound I-46, (1R,3R,5S)-8-{4-[(pentane-1-sulfonyl)carbamoyl]phenyl}-8-azabicyclo[3.2.1]octan-3-yl 5-cyclopropyl-3-(2,6-dichlorophenyl)-1,2-oxazole-4-carboxylate], the figures for the “% Efficacy” value in assay [1] and in assay [2] were 146% and 110%, respectively.

In the case of `CC(C)c1onc(-c2c(Cl)cccc2Cl)c1COc1ccc(/C=C/c2cccc(C(=O)O)c2)c(Cl)c1` [GW4064], the “Activity, % (n)” value in assay [3] is 100 ± 0 (154) %.

`O=C(O)c1ccc([C@H]2C[C@@H]2c2ccc(OCc3c(-c4c(Cl)cccc4Cl)noc3C3CC3)cc2Cl)cc1` [Px-102]: in assay [1] (Human FXR Binding (FRET), relative to GW4064), the “Activity, % (n)” value is on record as 90 ± 15 (3) %. The “liver Cyp7a1 gene expression” value in assay [4] is on record as “downregulated”. In assay [4] (6 weeks of treatment), the “hepatosteatosis related endpoints (including liver triglycerides and liver cholesterol)” value is given as “normalized”; the “macrovesicular steatosis (score)” value is recorded as “reduced”; the “serum FGF15 concentration” value is “further increased”; the serum cholesterol entry is reported as “reduced”.
